Assay results: US20030229053A1, “Compounds and methods for the treatment or prevention of flavivirus infections” (Shire BioChem Inc., priority 2001, published 2003)
pIC50: −log10 of the molar value.

Assays:
[1] = target: recombinant HCV NS5B (Hepatitis C virus genotype 1b, UniProt P26663); assay: biochemical; settings: flashplate, polyrA/biotinylated-oligo dT, 100 nM NS5B, 2 hrs at room temperature; read-out: RNA pol Assay 2 IC50 (μm)
Description: In vitro HCV RdRp Flashplate Scintillation Proximity Assay (Strep-Flash Assay) Used to Evaluate Analogues:
In brief, a 400 ng/μl polyrA solution (Amersham Pharmacia Biotech) was mixed volume-to-volume with 5′ biotin-oligo dT12 at 20 pmol/μl. The template and primers were denatured at 95 C for 5 minutes then incubated at 37 C for 10 minutes. Annealed template-primers were subsequently diluted in a Tris-HCl containing buffer and allowed to bind to streptavidin-coated flashplates overnight.

[2] = target: HCV NS5B RNA-dependent RNA polymerase (Hepatitis C virus genotype 1b, UniProt P26663); assay: In vitro RNA-dependent RNA polymerase assay (Assay 1), polyA/oligo dT, TCA precipitation; assay type: biochemical; settings: polyA/oligo dT template/primer, 200 ng NS5B, 2 h at 22° C.; read-out: RNA pol Assay 1 IC50 (μm)
Summary of the method: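 Purified NS5B (200 ng) on annealed polyA/oligo dT15 in 20 mM Tris-HCl pH 7.5, 50 mM NaCl, 5 mM MgCl2, 1 mM DTT, 15 µM cold UTP plus [32P]-UTP, 2 h at 22°C. Product TCA-precipitated, filtered onto glass-fibre and counted by liquid scintillation.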

Chain of recombinant HCV NS5B (P26663 2420-3010 limits assumed): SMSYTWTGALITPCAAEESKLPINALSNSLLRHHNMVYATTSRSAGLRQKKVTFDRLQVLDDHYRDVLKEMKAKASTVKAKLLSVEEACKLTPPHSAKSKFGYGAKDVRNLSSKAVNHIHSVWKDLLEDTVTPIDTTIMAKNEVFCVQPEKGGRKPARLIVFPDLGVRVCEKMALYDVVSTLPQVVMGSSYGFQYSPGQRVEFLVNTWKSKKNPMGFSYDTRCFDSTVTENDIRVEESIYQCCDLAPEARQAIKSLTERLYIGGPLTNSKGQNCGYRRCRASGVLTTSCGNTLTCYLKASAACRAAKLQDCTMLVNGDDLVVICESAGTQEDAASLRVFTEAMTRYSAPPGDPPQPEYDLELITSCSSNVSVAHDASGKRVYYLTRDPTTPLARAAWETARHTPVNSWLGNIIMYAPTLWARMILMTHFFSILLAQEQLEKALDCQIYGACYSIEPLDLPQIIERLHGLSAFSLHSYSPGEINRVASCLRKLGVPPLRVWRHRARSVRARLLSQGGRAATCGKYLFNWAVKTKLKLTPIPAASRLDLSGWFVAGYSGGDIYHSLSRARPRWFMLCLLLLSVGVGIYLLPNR
Chain of HCV NS5B RNA-dependent RNA polymerase (P26663 2420-3010 limits assumed): as above

Row | pIC50 [1] | pIC50 [2] | SMILES
1 | > 5.30 | – | O=C(O)C(Cc1ccccc1)N(Cc1cc(Cl)cc(Cl)c1)C(=O)c1ccc(Cl)cc1Cl (stereo in doubt) [compound #142, (2s)-2-[(2,4-Dichloro-benzoyl)-(3,5-dichloro-benzyl)-amino]-3-phenyl-propionic acid]
2 | > 5.30 | – | O=C(O)C(Cc1ccccc1)N(Cc1ccsc1)C(=O)c1ccc(Cl)cc1Cl (stereo in doubt) [compound #143, (2s)-2-[(2,4-Dichloro-benzoyl)-thiophen-3-ylmethyl-amino]-3-phenyl-propionic acid]
3 | 4.70 to 5.30 | – | O=C(O)[C@H](Cc1ccccc1)N(C[C@H]1CCCN1)C(=O)c1ccc(Cl)cc1Cl (stereo in doubt) [compound #168, d-2-[(2,4-Dichloro-benzoyl)-pyrrolidin-2-ylmethyl-amino]-3-phenyl-propionic acid]
4 | > 5.30 | – | CN(C(=O)c1ccc(Cl)cc1Cl)[C@H](Cc1ccc(Br)s1)C(=O)O (stereo in doubt) [compound #169, 3-(5-Bromo-thiophen-2-yl)-2-[(2,4-dichloro-benzoyl)-methyl-amino]-propionic acid]
5 | – | > 5.30 | O=C(O)[C@H](Cc1ccccc1)N(Cc1ccc(-c2cccs2)s1)C(=O)c1ccc(Cl)cc1Cl [compound #127, (2s)-2-[[2,2′]Bithiophenyl-5-ylmethyl-(2,4-dichloro-benzoyl)-amino]-3-phenyl-propionic acid]
6 | – | > 5.30 | O=C(O)[C@H](Cc1ccccc1)N(Cc1ccc(-c2ccc(Cl)s2)s1)C(=O)c1ccc(Cl)cc1Cl [compound #128, (2s)-2-[(5′-Chloro-[2,2′]bithiophenyl-5-ylmethyl)-(2,4-dichloro-benzoyl)-amino]-3-phenyl-propionic acid]
7 | – | > 5.30 | O=C(O)[C@H](Cc1ccccc1)N(Cc1cc(-c2cc(F)cc(F)c2)cs1)C(=O)c1ccc(Cl)cc1Cl [compound #129, (2s)-2-{(2,4-Dichloro-benzoyl)-[4-(3,5-difluoro-phenyl)-thiophen-2-ylmethyl]-amino}-3-phenyl-propionic acid]
8 | – | > 5.30 | O=C(O)[C@H](Cc1ccccc1)N(Cc1cc(-c2cccc(F)c2)cs1)C(=O)c1ccc(Cl)cc1Cl [compound #130, (2s)-2-{(2,4-Dichloro-benzoyl)-[4-(3-fluoro-phenyl)-thiophen-2-ylmethyl]-amino}-3-phenyl-propionic acid]
9 | – | > 5.30 | O=C(O)[C@H](Cc1ccccc1)N(Cc1ccc(-c2cccc(C(F)(F)F)c2)o1)C(=O)c1ccc(Cl)cc1I [compound #131, (2s)-2-{(4-Chloro-2-iodo-benzoyl)-[5-(3-trifluoromethyl-phenyl)-furan-2-ylmethyl]-amino}-3-phenyl-propionic acid]
10 | – | > 5.30 | O=C(O)[C@H](Cc1ccccc1)N(Cc1cc(-c2ccc(Cl)s2)cs1)C(=O)c1ccc(Cl)cc1Cl [compound #133, (2s)-2-[(5-Chloro-[2,3′]bithiophenyl-5′-ylmethyl)-(2,4-dichloro-benzoyl)-amino]-3-phenyl-propionic acid]
11 | – | > 5.30 | COc1ccc(-c2ccc(CN(C(=O)c3ccc(Cl)cc3Cl)[C@@H](Cc3ccccc3)C(=O)O)o2)cc1 [compound #134, (2s)-2-{(2,4-Dichloro-benzoyl)-[5-(4-methoxy-phenyl)-furan-2-ylmethyl]-amino}-3-phenyl-propionic acid]
12 | – | > 5.30 | COc1ccc(-c2ccc(CN(C(=O)c3ccc(Cl)cc3Cl)[C@@H](Cc3ccccc3)C(=O)O)s2)cc1 [compound #135, (2s)-2-{(2,4-Dichloro-benzoyl)-[5-(4-methoxy-phenyl)-thiophen-2-ylmethyl]-amino}-3-phenyl-propionic acid]
13 | – | > 5.30 | COc1ccc(-c2csc(CN(C(=O)c3ccc(Cl)cc3Cl)[C@@H](Cc3ccccc3)C(=O)O)c2)cc1 [compound #136, (2s)-2-{(2,4-Dichloro-benzoyl)-[4-(4-methoxy-phenyl)-thiophen-2-ylmethyl]-amino}-3-phenyl-propionic acid]
14 | – | > 5.30 | O=C(O)[C@H](Cc1ccccc1)N(Cc1ccc(-c2ccncc2)o1)C(=O)c1ccc(Cl)cc1Cl [compound #137, (2s)-2-[(2,4-Dichloro-benzoyl)-(5-pyridin-4-yl-furan-2-ylmethyl)-amino]-3-phenyl-propionic acid]
15 | – | > 5.30 | O=C(O)[C@H](Cc1ccccc1)N(Cc1ccc(-c2ccncc2)s1)C(=O)c1ccc(Cl)cc1Cl [compound #138, (2s)-2-[(2,4-Dichloro-benzoyl)-(5-pyridin-4-yl-thiophen-2-ylmethyl)-amino]-3-phenyl-propionic acid]
16 | – | > 5.30 | O=C(O)[C@H](Cc1ccccc1)N(Cc1cc(-c2ccncc2)cs1)C(=O)c1ccc(Cl)cc1Cl [compound #139, (2s)-2-[(2,4-Dichloro-benzoyl)-(4-pyridin-4-yl-thiophen-2-ylmethyl)-amino]-3-phenyl-propionic acid]

More lines, now with the values behind:

Row | SMILES | pIC50 [1] | pIC50 [2]
17 | CC(c1cccc(C#N)c1)N(C(=O)c1ccc(Cl)cc1Cl)[C@@H](Cc1ccccc1)C(=O)O (stereo in doubt) [Compound #205, 2-[[1-(3-CYANO-PHENYL)-ETHYL]-(2,4-DICHLORO-BENZOYL)-AMINO]-3PHENYL-PROPIONIC ACID] | 4.70 to 5.30 | –
18 | CN(C(=O)c1ccc(Cl)cc1Cl)[C@H](Cc1ccc(-c2cc3ccccc3o2)cc1)C(=O)O [Compound #29, 3-(4-Benzofuran-2-yl-phenyl)-2-[(2,4-dichloro-benzoyl)-methyl-amino]-propionic acid] | 4.70 to 5.30 | –
19 | O=C(O)[C@H](Cc1ccccc1)N(Cc1cccc([N+](=O)[O-])c1)C(=O)c1ccc(Cl)cc1Cl [Compound #53, (2S)-2-[(2,4-Dichloro-benzoyl)-(3-nitro-benzyl)-amino]-3-phenyl-propionic acid] | > 5.30 | –
20 | COC(=O)c1cccc(CN(C(=O)c2ccc(Cl)cc2Cl)[C@@H](Cc2ccccc2)C(=O)O)c1 [Compound #117, 3-{[(1-Carboxy-2-phenyl-ethyl)-(2,4-dichloro-benzoyl)-amino]-methyl}-benzoic acid methyl ester] | > 5.30 | –
21 | N#Cc1cccc(-c2ccc(CN(C(=O)c3ccc(Cl)cc3Cl)[C@@H](Cc3ccccc3)C(=O)O)o2)c1 [Compound #119, 2-[[5-(3-Cyano-phenyl)-furan-2-ylmethyl]-(2,4-dichloro-benzoyl)-amino]-3-phenyl-propionic acid] | > 5.30 | –
22 | Cc1ccc(C(=O)N(Cc2cc(-c3ccc(F)c(Cl)c3)cs2)[C@@H](Cc2ccccc2)C(=O)O)c(C)c1 [Compound #192, 2-[[4-(3-Chloro-4-fluoro-phenyl)-thiophen-2-ylmethyl]-(2,4-dimethyl-benzoyl)-amino]-3-phenyl-propionic acid] | > 5.30 | –
23 | O=C(O)c1cccc(CN(C(=O)c2ccc(Cl)cc2Cl)[C@@H](Cc2ccccc2)C(=O)O)c1 [Compound #193, 3-{[(1-Carboxy-2-phenyl-ethyl)-(2,4-dichloro-benzoyl)-amino]-methyl}-benzoic acid] | > 5.30 | –
24 | Nc1cccc(CN(C(=O)c2ccc(Cl)cc2Cl)[C@@H](Cc2ccccc2)C(=O)O)c1 [Compound #194, 2-[(3-Amino-benzyl)-(2,4-dichloro-benzoyl)-amino]-3-phenyl-propionic acid] | 4.70 to 5.30 | –
25 | O=C(O)[C@@H](Cc1ccccc1)N(Cc1ccccc1)C(=O)c1ccc(Cl)cc1Cl [Compound #199, 2-[Benzyl-(2,4-dichloro-benzoyl)-amino]-3-phenyl-propionic acid] | 4.70 to 5.30 | –
26 | O=C(O)C(Cc1ccccc1)N(Cc1cccc(-c2nn[nH]n2)c1)C(=O)c1ccc(Cl)cc1Cl (stereo not drawn) [Compound #200, 2-{(2,4-DICHLORO-BENZOYL)-[3-(2H-TETRAZOL-5-YL)-BENZYL]-AMINO}-3-PHENYL-PROPIONIC ACID] | > 5.30 | –
27 | O=C(O)[C@H](Cc1ccccc1)N(Cc1ccccc1[N+](=O)[O-])C(=O)c1ccc(Cl)cc1Cl [Compound #201, 2-[(2,4-DICHLORO-BENZOYL)-(2-NITRO-BENZYL)-AMINO]-3-PHENYL-PROPIONIC ACID] | 4.70 to 5.30 | –
28 | O=C(O)[C@H](Cc1ccccc1)N(Cc1ccc([N+](=O)[O-])cc1)C(=O)c1ccc(Cl)cc1Cl [Compound #202, 2-[(2,4-DICHLORO-BENZOYL)-(4-NITRO-BENZYL)-AMINO]-3-PHENYL-PROPIONIC] | 4.70 to 5.30 | –
29 | N#Cc1ccccc1CN(C(=O)c1ccc(Cl)cc1Cl)[C@@H](Cc1ccccc1)C(=O)O [Compound #203, 2-[(2-CYANO-BENZYL)-(2,4-DICHLORO-BENZOYL)-AMINO]-3-PHENYL-PROPIONIC ACID] | 4.70 to 5.30 | –
30 | N#Cc1ccc(CN(C(=O)c2ccc(Cl)cc2Cl)[C@@H](Cc2ccccc2)C(=O)O)cc1 [Compound #204, 2-[(4-CYANO-BENZYL)-(2,4-DICHLORO-BENZOYL)-AMINO]-3-PHENYL-PROPIONIC ACID] | 4.70 to 5.30 | –
31 | CS(=O)(=O)c1cccc(CN(C(=O)c2ccc(Cl)cc2Cl)[C@@H](Cc2ccccc2)C(=O)O)c1 [Compound #208, 2-[(2,4-DICHLORO-BENZOYL)-(3-METHANESULFONYL-BENZYL)-AMINO]-3-PHENYL-PROPIONIC ACID] | 4.70 to 5.30 | –
32 | CC(=O)c1cccc(CN(C(=O)c2ccc(Cl)cc2Cl)[C@@H](Cc2ccccc2)C(=O)O)c1 [Compound #209, 2-[(3-ACETYL-BENZYL)-(2,4-DICHLORO-BENZOYL)-AMINO]-3-PHENYL-PROPIONIC ACID] | > 5.30 | –
33 | O=C(O)[C@H](Cc1ccccc1)N(Cc1ccc(-c2ccc(Cl)s2)o1)C(=O)c1ccc(Cl)cc1Cl [compound #126, (2s)-2-[[5-(5-Chloro-thiophen-2-yl)-furan-2-ylmethyl]-(2,4-dichloro-benzoyl)-amino]-3-phenyl-propionic acid] | – | > 5.30
